Source: US20040192734A1, “4-(3-aminomethylphenyl)piperidin-1-yl]-[5-(2-fluorophenylethynyl)furan-2-yl]-methanone as an inhibitor of mast cell tryptase” (AVENTIS PHARMACEUTICALS INC., priority 2002, published 2004)
“And” between values parts separate entries of the source, which are not always exact repeats. Equal entries are not always repeated. Structures can show the parent of a compound that is named as a salt. Where two headings read alike, the source gives them in different places.

Legend:
[1] = tested on: Airway Hyperresponsiveness (AHR) to histamine in sensitized guinea pigs; assay: Guinea Pig Model of Airway Hyperreactivity; assay type: in vivo; conditions: for protective effect as measured by airway resistance / protective effect as measured by lung compliance: intravenous dosing at 0.3, 1 and 3 mg/kg; for Intravenous ID50 Dynamic Lung Compliance: Cdyn40, histamine challenge; for Intravenous ID50 Dynamic Lung Compliance / Intravenous ID50 Airway Hyperresponsiveness: ovalbumin-sensitized guinea pigs; for Intravenous ID50 Airway Hyperresponsiveness: airway resistance (RL300), histamine challenge
[2] = biological target: T1, recombinant human β tryptase (Homo sapiens, UniProt Q15661); assay: β-Tryptase Inhibition (chromogenic assay); assay type: biochemical; conditions: for Ki: chromogenic assay, substrate S2366 0.5 mM, room temperature, Ki calculated from IC50
T1 construct: made in house; host or cells: yeast cells
T1 sequence (Q15661 31-275): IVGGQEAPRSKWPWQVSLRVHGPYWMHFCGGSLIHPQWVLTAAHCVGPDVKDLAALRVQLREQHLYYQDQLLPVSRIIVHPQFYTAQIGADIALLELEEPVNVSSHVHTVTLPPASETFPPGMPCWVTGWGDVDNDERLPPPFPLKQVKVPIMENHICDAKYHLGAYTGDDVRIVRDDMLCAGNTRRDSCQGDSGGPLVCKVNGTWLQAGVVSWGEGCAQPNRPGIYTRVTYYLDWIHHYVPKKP
From the text: Tr0yptase inhibition activity is confirmed using either isolated human lung tryptase or recombinant human β tryptase expressed in yeast cells. Essentially equivalent results are obtained using isolated native enzyme or the expressed enzyme. The assay procedure employs a 96 well microplate (Costar 3590) using L-pyroglutamyl-L-prolyl-L-arginine-para-nitroanilide (S2366: Quadratech) as substrate (essentially as described by McEuen et. al. Biochem Pharm, 1996, 52, pages 331-340). Assays are performed at room temperature using 0.5 mM substrate (2×Km) and the microplate is read on a microplate reader (Beckman Biomek Plate reader) at 405 nm wavelength. The inhibition constants (Ki) for the compound of the present invention and other structurally related compounds, are set forth in Table 1.
Materials and Methods for Trtase Primary Screen (Chromogenic Assay)
S2366 (Stock solutions of 2.5 mM).
Purified recombinant beta Tryptase Stocks of 310 μg/mL.
Add 60 μL of diluted substrate (final concentration of 500 μM in assay buffer) to each well
Add compound in duplicates, final concentration of 20 μM, volume 20 μL
Add enzyme at a final concentration of 50 ng/mL in a volume of 20 μL
Total volume for each well is 100 μL
Agitate briefly to mix and incubate at room temp in the dark for 30 minutes
Read absorbencies at 405 nM
Protocol (IC50 and Ki Determination)
The protocol is essentially the same as above except that the compound is added in duplicates at the following final concentrations: 0.01, 0.03, 0.1, 0.3, 1, 3, 10 uM (All dilutions carried out manually). For every assay, whether single point or IC50 determination, a standard compound is used to derive IC50 for comparison. From the IC50 value, the Ki can be calculated using the following formula:
Ki=IC50/(1+[Substrate]/Km).

[3] = tested on: Airway Hyperresponsiveness (AHR) to histamine in sensitized guinea pigs; assay: Guinea Pig Model of Airway Hyperreactivity; assay type: in vivo; conditions: for protection against AHR to histamine, airway resistance: oral dosing, Structure (III) where X=H dosed at 3, 10, and 30 mg/kg; for protection against AHR to histamine, airway resistance / Oral ID50 Dynamic Lung Compliance / Oral ID50 Airway Hyperresponsiveness: 2 hours prior to ovalbumin challenge; for Oral ID50 Dynamic Lung Compliance: Cdyn40; for Oral ID50 Airway Hyperresponsiveness: airway resistance (RL300)
Description: Sensitization and drug treatment: Male Hartley guinea pigs (225-250g) are sensitized with ovalbumin (0.5 mL of 1% solution, i.p. and s.c.). On day 4, animals received a booster injection (i.p.) of 0.5 mL of 1% ovalbumin. On day 21, animals are orally dosed (2 ml/kg) with either vehicle (0.5% methylcellulose/0.2% Tween 80) or test compound 2 hours prior to antigen challenge. Thirty minutes before antigen challenge the animals are also injected with mepyramine (30 mg/kg, i.p.) to prevent anaphylactic collapse. Animals are then exposed for 5 minutes to an aerosol of either saline (control animals) or 1% ovalbumin using a deVilbiss Ultraneb nebulizer.
AHR measurement: Eighteen to twenty four hours after challenge, animals are anesthetized with a combination of ketamine (133 mg/kg) and xylazine (24 mg/kg) given intramuscularly, surgically prepared and then mounted in a whole body plethysmograph for lung function measurement. Animals were connected to Ugo-Basile ventilators delivering a tidal volume of 1 mL/100 g at a rate of 50 breaths/minute via a tracheal cannula. The jugular vein is also cannulated for histamine challenge. A water filled oesophageal cannula is placed such that transpulmonary pressure could be recorded. Transpulmonary pressure is measured as the difference between the tracheal and esophageal cannulas using a differential pressure transducer. The volume, airflow, and transpulmonary pressure signals are monitored using a pulmonary analysis system (Buxco XA software) and used to calculate pulmonary resistance (cm H2O/mL/s) and dynamic compliance (mL/cm H2O). Airway resistance and dynamic compliance were computed on a breath by breath basis. Histamine is administered intravenously and reactivity to increasing concentrations (0.1-10 μg/kg) assessed. ID50's are estimated from the RL300 (histamine concentration required to 300% increase in lung resistance) and Cdyn40 (histamine concentration required to induce a 40% decrease in dynamic lung compliance) parameters deduced from the individual […] a histamine dose-response curves.

[4] = biological target: T1, recombinant human β tryptase; conditions: greatest β-Tryptase inhibitory potency disclosed in U.S. application Ser. No. 09/843,126; cited from earlier work
[5] = listed as compound of the present invention, trifluoroacetate

Row | Structure (SMILES) | protective effect as measured by airway resistance [1] | protective effect as measured by lung compliance [1] | Intravenous ID50 Dynamic Lung Compliance [1] | Intravenous ID50 Airway Hyperresponsiveness [1] | Ki [2] | protection against AHR to histamine, airway resistance [3] | Oral ID50 Dynamic Lung Compliance [3] | Oral ID50 Airway Hyperresponsiveness [3] | other results
1 | NCc1cccc(C2CCN(C(=O)c3cccc(C#Cc4ccccc4)c3)CC2)c1.O=C(O)C(F)(F)F [Structure (II) where X = H, [4-(3-aminomethylphenyl)piperidin-1-yl]-(3-phenylethynylphenyl)methanone trifluoroacetate] | uniformly ineffective | does not show any protective effects | >3.0 mg/kg | >3.0 mg/kg | 0.106 µM | – | – | – | –
2 | NCc1cccc(C2CCN(C(=O)c3cccc(C#Cc4ccccc4F)c3)CC2)c1.O=C(O)C(F)(F)F [Structure (II) where X=F, [4-(3-aminomethylphenyl)piperidin-1-yl]-[3-(2-fluorophenylethynyl)phenyl]methanone trifluoroacetate] | – | – | – | – | 0.097 µM | – | – | – | fold increase in β-Tryptase inhibitory potency ([2]; Structure (II) where X=F versus Structure (II) where X=H): 1.09 fold
3 | NCc1cccc(C2CCN(C(=O)c3ccc(C#Cc4ccccc4F)o3)CC2)c1 [Structure (III) where X = F, [4-(3-Aminomethylphenyl)piperidin-1-yl]-[5-(2-fluorophenylethynyl)furan-2-yl]-methanone trifluoroacetate] | protective at all doses | protective at all doses | – | – | 0.0076 to 0.0097 µM and 0.0076 µM and 0.0097 µM | significantly protects against AHR to histamine | 1 to 2 mg/kg | 1 to 2 mg/kg | effect on basal airway resistance ([3]; sensitized guinea pigs): no effect; effect on basal dynamic lung compliance ([3]; sensitized guinea pigs): no effect; Intravenous ID50 Dynamic Lung Compliance [1, 5]: < 0.3 mg/kg; Intravenous ID50 Dynamic Lung Compliance ([1]; trifluoroacetate): <0.3 mg/kg; Intravenous ID50 Airway Hyperresponsiveness [1, 5]: < 0.3 mg/kg; Intravenous ID50 Airway Hyperresponsiveness ([1]; trifluoroacetate): <0.3 mg/kg
4 | NCc1cccc(C2CCN(C(=O)c3ccc(C#Cc4ccccc4)o3)CC2)c1.O=C(O)C(F)(F)F [Structure (III) where X = H, [4-(3-aminomethylphenyl)piperidin-1-yl]-(5-phenylethynylfuran-2-yl)methanone trifluoroacetate] | reversed airway resistance at the highest dose | does not show any protective effects | >3.0 mg/kg | 1 to 3 mg/kg | 0.031 µM | protective on airway resistance, but the effects are not statistically significant | >30 mg/kg | Protective at 3, | effect on lung compliance ([3]; oral dosing at 3, 10, and 30 mg/kg): No effect; fold increase in β-Tryptase inhibitory potency ([2]; Structure (III) where X=H versus Structure (II) where X=H): 3.42 fold
5 | NCc1cccc(C2CCN(C(=O)c3ccc(Cl)c(Cl)c3)CC2)c1 [[4-(3-Aminomethylphenyl)piperidin-1-yl]-(3,4-dichlorophenyl) methanonetrifluoroacetate] | – | – | – | – | – | – | – | – | Ki [4]: 0.031 µM
